The results in this text go back to publication PMC13493820, “Versatile Glycan Probes for Multiplatform Investigation of Glycan Interactions with Proteins, Viruses, and Cells” (Nature Communications, 2026).

The target in this assay is T1, rhesus Langerin (Macaca mulatta, UniProt F7HNH2).
T1 construct: gene CD207; array protein; construct only in supplement
Kind of assay: glycan microarray. It counts as binding. The conditions noted are these: labelled compound (FAA probe, immobilised).

T1 sequence (F7HNH2 1-328): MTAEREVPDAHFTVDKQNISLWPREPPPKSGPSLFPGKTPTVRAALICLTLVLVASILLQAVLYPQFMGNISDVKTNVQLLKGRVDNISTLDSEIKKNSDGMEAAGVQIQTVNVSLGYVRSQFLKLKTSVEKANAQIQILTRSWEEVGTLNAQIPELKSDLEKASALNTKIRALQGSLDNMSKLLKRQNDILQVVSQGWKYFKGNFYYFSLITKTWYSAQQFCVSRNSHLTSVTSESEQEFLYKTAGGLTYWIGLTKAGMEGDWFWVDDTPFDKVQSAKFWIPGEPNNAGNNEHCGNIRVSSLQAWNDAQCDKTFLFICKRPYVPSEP

Turning to `CC(=O)N[C@H]1[C@H](O[C@H]2[C@H](O)[C@@H](NC(C)=O)C(O)O[C@@H]2CO)O[C@H](CO)[C@@H](O[C@@H]2O[C@H](CO[C@H]3O[C@H](CO[C@H]4O[C@H](CO)[C@@H](O)[C@H](O)[C@@H]4O[C@H]4O[C@H](CO)[C@@H](O)[C@H](O)[C@@H]4O)[C@@H](O)[C@H](O[C@H]4O[C@H](CO)[C@@H](O)[C@H](O)[C@@H]4O[C@H]4O[C@H](CO)[C@@H](O)[C@H](O)[C@@H]4O)[C@@H]3O)[C@@H](O)[C@H](O[C@H]3O[C@H](CO)[C@@H](O)[C@H](O)[C@@H]3O[C@H]3O[C@H](CO)[C@@H](O)[C@H](O)[C@@H]3O[C@H]3O[C@H](CO)[C@@H](O)[C@H](O)[C@@H]3O)[C@@H]2O)[C@@H]1O` (stereo partly shown) [Man9GlcNAc2], the glycan microarray entry is recorded as “rhesus Langerin bound almost exclusively to Man9GlcNAc2”.
